Assay results: paper PMC9133015 (Nature Communications, 2022)
Several values for one entry are separate records, joined by “and”; a condition that tells them apart may be missing. Equal entries are not always repeated.

Columns and labels:
DU145 cells [1] = assay: Migration assay (transwell); assay type: cell-based, human; details: DU145, 2 μM, replicates
22Rv1 cells [2] = assay: Migration assay (transwell); assay type: cell-based, human; details: 22Rv1, 0.5 μM, replicates
PC-3 cells [3] = assay: Migration assay (transwell); assay type: cell-based, human; details: PC-3; 2 µM; replicates
PC-3 cells [4] = assay: Colony formation assay; assay type: cell-based, human; details: 2 µM, replicates
DU145 cells [5] = assay: Cell cycle assay (PI flow cytometry); assay type: cell-based, human; details: DU145, 2 μM, replicates
22Rv1 cells [6] = assay: Cell cycle assay (PI flow cytometry); assay type: cell-based, human; details: 22Rv1, 0.5 μM, replicates
PC-3 cells [7] = assay: Cell cycle assay (PI flow cytometry); assay type: cell-based, human; details: PC-3, 2 µM, replicates
DU145 xenograft = assay: In vivo antitumor activity, DU145 xenograft mouse model; parameters: species or system BALB/c nude mice; details: for Body weight (Fig. 7b) / Tumor volume (Fig. 7a): individual mice 1-10
DU145 cells [8] = assay: Apoptosis assay (Annexin V-APC/PI flow cytometry); assay type: cell-based, human; details: DU145, 2 μM, replicates
22Rv1 cells [9] = assay: Apoptosis assay (Annexin V-APC/PI flow cytometry); assay type: cell-based, human; details: 22Rv1, 0.5 μM, replicates
PC-3 cells [10] = assay: Apoptosis assay (Annexin V-APC/PI flow cytometry); assay type: cell-based, human; details: PC-3; 2 µM; replicates
DU145 cells [11] = assay: Colony formation assay; assay type: cell-based, human; details: DU145, 2 μM, replicates
22Rv1 cells [12] = assay: Colony formation assay; assay type: cell-based, human; details: 22Rv1, 0.5 μM, replicates
DU145 cells [13] = assay: Invasion assay (transwell); assay type: cell-based, human; details: DU145, 2 μM, replicates
PC-3 cells [14] = assay: Invasion assay (transwell); assay type: cell-based, human; details: PC-3; 2 µM; replicates
DU145 cells [15] = assay: Anti-proliferation activity assay (CCK8, 72 h); assay type: cell-based, human; details: DU145; for Relative proliferation rate (%) / optical density: replicates
PC-3 cells [16] = assay: Anti-proliferation activity assay (CCK8, 72 h); assay type: cell-based, human; details: PC-3; for Relative proliferation rate (%) / optical density: replicates

CC(=O)c1c(C)c2cnc(Nc3ccc(N4CCNCC4)cn3)nc2n(C2CCCC2)c1=O [palbociclib]
Cell migration (cell number) (DU145 cells [1]): 4289 cell number and 4310 cell number and 4198 cell number
Cell migration (cell number) (22Rv1 cells [2]): 1008 cell number and 1108 cell number and 1169 cell number
Cell migration (cell number) (PC-3 cells [3]): 267 cell number and 257 cell number and 249 cell number
Colony formation (cell number) (PC-3 cells [4]): 78 cell number and 83 cell number and 81 cell number
Cell cycle percentages ( % ) G0/G1 (DU145 cells [5]): 59.02% and 61.19% and 64.25%
Cell cycle percentages ( % ) G2/M (DU145 cells [5]): 23.03% and 20.58% and 18.04%
Cell cycle percentages ( % ) S (DU145 cells [5]): 17.95% and 18.23% and 19.71%
Cell cycle percentages ( % ) G0/G1 (22Rv1 cells [6]): 79.03% and 81.73% and 83.36%
Cell cycle percentages ( % ) G2/M (22Rv1 cells [6]): 9.98% and 8.76% and 8.18%
Cell cycle percentages ( % ) S (22Rv1 cells [6]): 10.99% and 9.51% and 8.46%
Cell cycle percentages ( % ) G0/G1 (PC-3 cells [7]; G0/G1): 84.02% and 87.57% and 88.06%
Cell cycle percentages ( % ) G2/M (PC-3 cells [7]; G2/M): 10.01% and 8.39% and 8.02%
Cell cycle percentages ( % ) S (PC-3 cells [7]; S): 5.97% and 4.04% and 3.92%
antitumor activity (in words) (DU145 xenograft; DU145 xenograft, 100 mg/kg orally once a day, seven weeks): only delayed the tumor growth
Body weight (Fig. 7b) (DU145 xenograft; Day 1): 20.6 and 19.7 and 20.3 (2×) and 19.6 and 19.8 and 20.4 and 20.1 and 21.5 and 21.1
Tumor volume (Fig. 7a) (DU145 xenograft; Day 1, in cm³ (unit assumed)): 0.06799 and 0.07327 and 0.07849 and 0.09349 and 0.07486 and 0.07173 and 0.06955 and 0.08095 and 0.1033 and 0.07176
Body weight (Fig. 7b) (DU145 xenograft; Day 3): 20.9 and 20.1 and 20.5 and 19.9 and 20.3 and 20.7 (2×) and 20.4 and 21.5 (2×)
Tumor volume (Fig. 7a) (DU145 xenograft; Day 3): 0.109 (2×) and 0.1112 and 0.1321 and 0.1287 and 0.1049 and 0.09325 and 0.1073 and 0.1517 and 0.1054
Body weight (Fig. 7b) (DU145 xenograft; Day 5): 21.2 and 20.4 and 20.7 (2×) and 20.2 and 20.5 and 20.8 and 21.6 and 21.8 and 20.9
Tumor volume (Fig. 7a) (DU145 xenograft; Day 5, in cm³ (unit assumed)): 0.1433 and 0.1864 and 0.1614 and 0.176 and 0.1543 and 0.1645 and 0.1193 and 0.1528 and 0.2268 and 0.2014
Tumor volume (Fig. 7a) (DU145 xenograft; Day 7, in cm³ (unit assumed)): 0.1784 and 0.235 and 0.2414 and 0.2692 and 0.217 and 0.2962 and 0.1705 and 0.2421 and 0.3416 and 0.2763
Body weight (Fig. 7b) (DU145 xenograft; Day 7, in g (unit assumed)): 21.5 and 20.6 and 21 and 20.5 and 20.7 and 21.1 and 20.9 and 21.9 and 22.1 and 21.2
Body weight (Fig. 7b) (DU145 xenograft; Day 9): 21.7 and 21 and 21.5 (2×) and 20.9 and 21.3 (2×) and 21.2 and 22.3 and 22.5
Tumor volume (Fig. 7a) (DU145 xenograft; Day 9, in cm³ (unit assumed)): 0.239 and 0.3072 and 0.3051 and 0.3239 and 0.2873 and 0.3055 and 0.2456 and 0.3235 and 0.4654 and 0.3489
Body weight (Fig. 7b) (DU145 xenograft; Day 11): 22.1 and 21.4 and 21.9 and 21.2 and 21.6 and 21.7 and 21.5 (2×) and 22.6 and 22.9
Tumor volume (Fig. 7a) (DU145 xenograft; Day 11, in cm³ (unit assumed)): 0.3066 and 0.4081 and 0.3897 and 0.4352 and 0.3512 and 0.3909 and 0.2984 and 0.4401 and 0.56 and 0.4357
Tumor volume (Fig. 7a) (DU145 xenograft; Day 13, in cm³ (unit assumed)): 0.3785 and 0.467 and 0.4591 and 0.5566 and 0.4456 and 0.4658 and 0.368 and 0.5218 and 0.6407 and 0.5062
Body weight (Fig. 7b) (DU145 xenograft; Day 13, in g (unit assumed)): 22.5 and 21.7 and 22.2 and 21.4 and 21.9 and 22.1 and 21.6 and 23.1 and 23.2 and 21.8
Body weight (Fig. 7b) (DU145 xenograft; Day 15): 22.9 and 22 and 22.4 and 21.6 and 22.1 (2×) and 22.5 and 21.7 and 23.3 and 23.5
Tumor volume (Fig. 7a) (DU145 xenograft; Day 15, in cm³ (unit assumed)): 0.4581 and 0.5316 and 0.5555 and 0.6598 and 0.5071 and 0.5543 and 0.4465 and 0.6242 and 0.7718 and 0.6156
Body weight (Fig. 7b) (DU145 xenograft; Day 17): 23.1 (2×) and 22.2 and 22.7 (2×) and 21.9 and 22.4 and 21.6 and 23.7 and 22.3
Tumor volume (Fig. 7a) (DU145 xenograft; Day 17, in cm³ (unit assumed)): 0.5062 and 0.5921 and 0.6502 and 0.7599 and 0.6087 and 0.6352 and 0.4918 and 0.6837 and 0.8676 and 0.6822
Body weight (Fig. 7b) (DU145 xenograft; Day 19): 23.4 (2×) and 22.5 and 23.1 (2×) and 22.3 and 22.8 and 21.9 and 23.9 and 22.6
Tumor volume (Fig. 7a) (DU145 xenograft; Day 19, in cm³ (unit assumed)): 0.5936 and 0.6347 and 0.7034 and 0.8268 and 0.6585 and 0.679 and 0.5363 and 0.7534 and 0.9195 and 0.6727
Tumor weight (Fig. 7c) (DU145 xenograft; reference drug groups, individual mice, in g (unit assumed)): 1.87 and 2.14 and 1.86 and 2.29 and 1.85 and 1.63 and 1.81 and 1.69 and 1.58
Apoptosis (%) (DU145 cells [8]): 16.25% and 14.39% and 12.36%
Apoptosis (%) (22Rv1 cells [9]): 5.82% and 6.41% and 7.27%
Apoptosis (%) (PC-3 cells [10]): 13.98% and 14.78% and 15.2%
Colony formation (cell number) (DU145 cells [11]): 150 cell number and 158 cell number and 148 cell number
Colony formation (cell number) (22Rv1 cells [12]): 250 cell number and 274 cell number and 246 cell number
Cell invasion (cell number) (DU145 cells [13]): 1998 cell number and 2045 cell number and 2102 cell number
Cell invasion (cell number) (PC-3 cells [14]): 1678 cell number and 1789 cell number and 1654 cell number
Relative proliferation rate (%) mean (DU145 cells [15]; 0.0049 uM): 4.824%
Relative proliferation rate (%) (DU145 cells [15]; 0.0049 uM): 3.385% and 4.869% and 6.219%
optical density (DU145 cells [15]; 0.0049 uM): 0.999 and 1.016 and 0.95
Relative proliferation rate (%) mean (DU145 cells [15]; 0.078 uM): 19.5052%
Relative proliferation rate (%) (DU145 cells [15]; 0.078 uM): 16.5377% and 19.5693% and 22.4087%
optical density (DU145 cells [15]; 0.078 uM): 0.863 and 0.859 and 0.786
Relative proliferation rate (%) mean (DU145 cells [15]; 0.3125 uM): 28.7249%
Relative proliferation rate (%) (DU145 cells [15]; 0.3125 uM): 24.9516% and 28.7453% and 32.4778%
optical density (DU145 cells [15]; 0.3125 uM): 0.776 and 0.761 and 0.684
Relative proliferation rate (%) mean (DU145 cells [15]; 1.25 uM): 33.0518%
Relative proliferation rate (%) (DU145 cells [15]; 1.25 uM): 30.3675% and 33.0524% and 35.7354%
optical density (DU145 cells [15]; 1.25 uM): 0.720 and 0.715 and 0.651
Relative proliferation rate (%) mean (DU145 cells [15]; 5 uM): 54.1864%
Relative proliferation rate (%) (DU145 cells [15]; 5 uM): 49.8066% and 54.2135% and 58.539%
optical density (DU145 cells [15]; 5 uM): 0.519 and 0.489 and 0.420
Relative proliferation rate (%) mean (DU145 cells [15]; 20 uM): 62.4741%
Relative proliferation rate (%) (DU145 cells [15]; 20 uM): 57.4468% and 62.4532% and 67.5222%
optical density (DU145 cells [15]; 20 uM): 0.440 and 0.401 and 0.329
Relative proliferation rate (%) mean (DU145 cells [15]; 80 uM): 75.0057%
Relative proliferation rate (%) (DU145 cells [15]; 80 uM): 68.472% and 74.9064% and 81.6387%
optical density (DU145 cells [15]; 80 uM): 0.326 and 0.268 and 0.186
Relative proliferation rate (%) mean (PC-3 cells [16]; 0.078 uM): 8.515%
Relative proliferation rate (%) (PC-3 cells [16]; 0.078 uM): 4.665% and 8.515% and 12.3646%
optical density (PC-3 cells [16]; 0.078 uM): 0.981 and 0.967 and 0.971
Relative proliferation rate (%) mean (PC-3 cells [16]; 0.3125 uM): 12.5396%
Relative proliferation rate (%) (PC-3 cells [16]; 0.3125 uM): 9.427% and 12.4882% and 15.704%
optical density (PC-3 cells [16]; 0.3125 uM): 0.932 and 0.925 and 0.934
Relative proliferation rate (%) mean (PC-3 cells [16]; 1.25 uM): 26.3574%
Relative proliferation rate (%) (PC-3 cells [16]; 1.25 uM): 21.0884% and 26.3955% and 31.5884%
optical density (PC-3 cells [16]; 1.25 uM): 0.812 and 0.778 and 0.758
Relative proliferation rate (%) mean (PC-3 cells [16]; 5 uM): 54.2128%
Relative proliferation rate (%) (PC-3 cells [16]; 5 uM): 49.8542% and 54.21% and 58.574%
optical density (PC-3 cells [16]; 5 uM): 0.516 and 0.484 and 0.459
Relative proliferation rate (%) mean (PC-3 cells [16]; 20 uM): 74.7111%
Relative proliferation rate (%) (PC-3 cells [16]; 20 uM): 68.7075% and 74.7398% and 80.6859%
optical density (PC-3 cells [16]; 20 uM): 0.322 and 0.267 and 0.214
Relative proliferation rate (%) mean (PC-3 cells [16]; 80 uM): 84.0905%
Relative proliferation rate (%) (PC-3 cells [16]; 80 uM): 77.7454% and 83.8221% and 90.704%
optical density (PC-3 cells [16]; 80 uM): 0.229 and 0.171 and 0.103
